pIC50: −log10 of the molar value.
Molecular target: T1, menin/MLL (terbium chelate-labeled menin, FITC-MBM1 peptide) (Homo sapiens, UniProt O00255, T541A)
T1 construct: Menin (a.a 1-610-6xhis tag, 2.3 mg/mL in 20 mM Hepes)
T1 sequence (O00255 with tags, fused parts or gaps T541A): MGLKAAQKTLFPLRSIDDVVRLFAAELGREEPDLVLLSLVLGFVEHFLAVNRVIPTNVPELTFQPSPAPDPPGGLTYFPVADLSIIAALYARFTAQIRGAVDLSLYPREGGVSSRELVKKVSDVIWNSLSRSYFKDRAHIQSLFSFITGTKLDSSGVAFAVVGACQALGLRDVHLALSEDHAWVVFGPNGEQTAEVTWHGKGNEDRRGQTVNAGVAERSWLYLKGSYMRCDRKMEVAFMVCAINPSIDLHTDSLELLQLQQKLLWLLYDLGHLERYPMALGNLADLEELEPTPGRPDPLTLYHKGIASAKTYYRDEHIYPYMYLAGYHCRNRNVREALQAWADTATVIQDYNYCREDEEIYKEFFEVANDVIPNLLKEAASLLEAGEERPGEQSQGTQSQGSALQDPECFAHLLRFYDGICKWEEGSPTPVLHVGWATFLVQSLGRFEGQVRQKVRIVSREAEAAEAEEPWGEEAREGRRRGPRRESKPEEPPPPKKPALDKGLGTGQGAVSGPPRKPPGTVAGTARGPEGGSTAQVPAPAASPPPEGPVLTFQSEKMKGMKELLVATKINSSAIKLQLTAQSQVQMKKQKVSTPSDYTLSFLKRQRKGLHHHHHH
Experiment: Menin/MLL homogenous time-resolved fluorescence (HTRF) assay
Assay type: binding
Conditions: 30 min incubation
Summary of the method: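 Terbium-labeled menin (a.a. 1-610, His-tagged; […]) pre-incubated 30 min with compound, then 75 nM FITC-MBM1 peptide added for 15 min at ambient temperature in Tris pH 7.5 buffer, 0.5% DMSO. HTRF 520/490 nm ratio read; IC50 from 11-point four-fold titrations, typically from 10 μM.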

Row | Structure (SMILES) | pIC50
1 | CC(=O)N1CCN(CCCC(C(C)C)N2CC[C@@H](Cc3cn(-c4ccc(F)cc4C(=O)N(C)C(C)C)c4cncc(C)c34)C2)CC1 (mixture of isomers) [Compound 8] | 9.44
2 | CC(=O)N1CCN(CCCC(C(C)C)N2CC[C@H](Cc3cn(-c4ccc(F)cc4C(=O)N(C)C(C)C)c4cncc(C)c34)C2)CC1 (mixture of isomers) [Compound 9] | 9.86
3 | Cc1cncc2c1c(C[C@@H]1CCN(CC3CCOCC3)C1)cn2-c1ccc(F)cc1S(=N)(=O)C(C)C (mixture of isomers) [Compound 78] | 9.52
4 | Cc1cncc2c1c(C[C@@H]1CCN(CC3CCNC(=O)C3)C1)cn2-c1ccc(F)cc1C(=O)N(C)C(C)C (mixture of isomers) [Compound 212] | 9.94
5 | COCCN(C)CCC[C@H](C(C)C)N1CC[C@H](Cc2cn(-c3ccc(F)cc3C(=O)N(C)C(C)C)c3cncc(Cl)c23)C1 (single isomer, unassigned) [Compound 4a] | 9.52
6 | COCCN(C)CCC[C@@H](C(C)C)N1CC[C@H](Cc2cn(-c3ccc(F)cc3C(=O)N(C)C(C)C)c3cncc(Cl)c23)C1 (single isomer, unassigned) [Compound 4b] | 10.03
7 | CN=S(=O)(c1cc(F)ccc1-n1cc(CC2CCN(CC3CCOCC3)C2)c2c(C)cncc21)C(C)C (single isomer, unassigned) [Compound 77d] | 9.68
8 | CC(=O)N1CCC(N2CC[C@H](Cc3cn(-c4ccc(F)cc4C(=O)N(C)C(C)C)c4cncc(C)c34)C2)CC1 (single isomer, unassigned) [Compound 81] | 9.37
9 | Cc1cncc2c1c(CC1CCN(CC3CCN(C(=O)[C@@H](C)O)CC3)C1)cn2-c1ccc(F)cc1C(=O)N(C)C(C)C (single isomer, unassigned) [Compound 85] | 9.95
10 | CC(=O)N1CCC(C(C)N2CCC(Cc3cn(-c4ccc(F)cc4C(=O)N(C)C(C)C)c4cncc(C)c34)C2)CC1 (single isomer, unassigned) [Compound 116a] | 10.12
11 | CN=[S@](=O)(c1cc(F)ccc1-n1cc(C[C@@H]2CCN(CC3CCN(C(C)=O)CC3)C2)c2c(C)cncc21)C(C)C (single isomer, unassigned) [Compound 128a] | 9.82
12 | COCC(=O)N1CCC(CN2CC[C@@H](Cc3cn(-c4ccc(F)cc4C(=O)N(C)C(C)C)c4cncc(C)c34)C2)CC1 (single isomer, unassigned) [Compound 136] | ~10.03
13 | COC[C@H](C1CCCCO1)N1CC[C@@H](Cc2cn(-c3ccc(F)cc3C(=O)N(C)C(C)C)c3cncc(C)c23)C1 (single isomer, unassigned) [Compound 165b] | 10.15
14 | Cc1cncc2c1c(C[C@@H]1CCN([C@H](C)C3CCOCC3)C1)cn2-c1ccc(F)cc1[S@](=N)(=O)C(C)C (single isomer, unassigned) [Compound 180a] | 9.84
15 | Cc1cncc2c1c(C[C@@H]1CCN(C[C@H]3CCOC3)C1)cn2-c1ccc(F)cc1C(=O)N(C)C(C)C (single isomer, unassigned) [Compound 190a] | 10.00
16 | Cc1cncc2c1c(CC1CN(C[C@@H]3CCOC3)C1)cn2-c1ccc(F)cc1C(=O)N(C)C(C)C (single isomer, unassigned) [Compound 191b] | 10.15
17 | Cc1cncc2c1c(C[C@@H]1CCN([C@H](CO)C3CCCOC3)C1)cn2-c1ccc(F)cc1C(=O)N(C)C(C)C (single isomer, unassigned) [Compound 198b] | 10.07
18 | CC(=O)N1CCC(CN2CC[C@@H](Cc3cn(-c4ccc(F)cc4C(=O)N4CCC5CC54)c4cncc(C)c34)C2)CC1 (single isomer, unassigned) [Compound 311b] | 10.11
19 | Cc1cncc2c1c(C[C@@H]1CCN(C[C@H]3CCNC(=O)CC3)C1)cn2-c1ccc(F)cc1C(=O)N1[C@H](C)CC[C@H]1C (single isomer, unassigned) [Compound 352a] | 9.99
20 | Cc1cncc2c1c(C[C@@H]1CCN(C[C@@H]3CCNC(=O)CC3)C1)cn2-c1ccc(F)cc1C(=O)N1[C@H](C)CC[C@H]1C (single isomer, unassigned) [Compound 352b] | 9.61
21 | Cc1cncc2c1c(C[C@@H]1CCN(CC3CCNC(=O)CC3)C1)cn2-c1ccc(F)cc1C(=O)N1CCC[C@H]1C (single isomer, unassigned) [Compound 353a] | 10.03

Now from value to compound:

Row | pIC50 | Structure (SMILES)
22 | 10.28 | CC(=O)N1C[C@@H]2CN([C@H]3C[C@@H](C(C(C)C)N4CC[C@H](Cc5cn(-c6ccc(F)cc6C(=O)N(C)C(C)C)c6cncc(C)c56)C4)C3)C[C@H]2C1 (mixture of isomers) [Compound 21]
23 | 10.24 | CCC([C@H]1C[C@@H](N2CCN(C(C)=O)CC2)C1)N1CC[C@@H](Cc2cn(-c3ccc(F)cc3C(=O)N(C)C(C)C)c3cncc(C)c23)C1 (mixture of isomers) [Compound 24]
24 | 10.21 | Cc1cncc2c1c(C[C@@H]1CCN(CC3CCNC(=O)CC3)C1)cn2-c1ccc(F)cc1C(=O)N(C)C(C)C (mixture of isomers) [Compound 169]
25 | 10.31 | COCCN(C)CCCC(C(C)C)N1CC[C@H](Cc2cn(-c3ccc(F)cc3C(=O)N(C)C(C)C)c3cncc(C)c23)C1 (single isomer, unassigned) [Compound 2]
26 | 10.80 | CC(=O)N1CCN(CCCC(C(C)C)N2CCC(Cc3cn(-c4ccc(F)cc4C(=O)N(C)C(C)C)c4cncc(C)c34)C2)CC1 (single isomer, unassigned) [Compound 9a]
27 | 10.49 | CC(=O)N1C[C@@H]2CN(CCC[C@H](C(C)C)N3CC[C@H](Cc4cn(-c5ccc(F)cc5C(=O)N(C)C(C)C)c5cncc(Cl)c45)C3)C[C@H]2C1 (single isomer, unassigned) [Compound 19a]
28 | 10.15 | CN=S(=O)(c1cc(F)ccc1-n1cc(CC2CCN(CC3CCOCC3)C2)c2c(C)cncc21)C(C)C (single isomer, unassigned) [Compound 77b]
29 | 10.38 | Cc1cncc2c1c(CC1CCN(CC3CCN(C(=O)[C@H](C)O)CC3)C1)cn2-c1ccc(F)cc1C(=O)N(C)C(C)C (single isomer, unassigned) [Compound 86]
30 | 10.57 | Cc1cncc2c1c(CC1CCN(CC3CCN(C(=O)C(C)(C)O)CC3)C1)cn2-c1ccc(F)cc1C(=O)N(C)C(C)C (single isomer, unassigned) [Compound 125]
31 | 10.20 | CC(=O)N1CCC(N2CC[C@H](Cc3cn(-c4ccc(F)cc4C(=O)N(C)C(C)C)c4cncc(C)c34)C2)C(C)C1 (single isomer, unassigned) [Compound 137a]
32 | 10.60 | CNC(=O)[C@H]1CC[C@H](CN2CC([C@H](C)c3cn(-c4ccc(F)cc4C(=O)N(C)C(C)C)c4cncc(C)c34)C2)CC1 (single isomer, unassigned) [Compound 164b]
33 | 10.18 | Cc1cncc2c1c(C[C@H]1CCN([C@H](C)C3CCOCC3)C1)cn2-c1ccc(F)cc1[S@](=N)(=O)C(C)C (single isomer, unassigned) [Compound 181a]
34 | 10.39 | Cc1cncc2c1c(CC1CCN(CC3CCC(=O)N(C)CC3)C1)cn2-c1ccc(F)cc1C(=O)N(C)C(C)C (single isomer, unassigned) [Compound 184a]
35 | 10.19 | Cc1cncc2c1c(CC1CCN(CC3CCC(=O)N(C)CC3)C1)cn2-c1ccc(F)cc1C(=O)N(C)C(C)C (single isomer, unassigned) [Compound 184b]
36 | 10.20 | Cc1cncc2c1c(C[C@@H]1CCN(C[C@@H]3CCOC3)C1)cn2-c1ccc(F)cc1C(=O)N(C)C(C)C (single isomer, unassigned) [Compound 190b]
37 | 10.25 | Cc1cncc2c1c(CC1CN(C[C@H]3CCOC3)C1)cn2-c1ccc(F)cc1C(=O)N(C)C(C)C (single isomer, unassigned) [Compound 191a]
38 | 10.47 | Cc1cncc2c1c(C[C@@H]1CCN([C@@H](CO)C3CCCOC3)C1)cn2-c1ccc(F)cc1C(=O)N(C)C(C)C (single isomer, unassigned) [Compound 198a]
39 | 10.31 | Cc1cncc2c1c(C[C@@H]1CCN(CC3CCC(O)CC3)C1)cn2-c1ccc(F)cc1C(=O)N(C)C(C)C (single isomer, unassigned) [Compound 205a]
40 | 10.46 | Cc1cncc2c1c(C[C@@H]1CCN(CC3CCC(O)CC3)C1)cn2-c1ccc(F)cc1C(=O)N(C)C(C)C (single isomer, unassigned) [Compound 205b]
41 | 10.35 | CC(=O)N1CCC([C@H](CO)N2CC[C@@H](Cc3cn(-c4ccc(F)cc4C(=O)N(C)C(C)C)c4cncc(C)c34)C2)CC1 (single isomer, unassigned) [Compound 206a]
42 | 10.43 | CC(=O)N1CCC(CN2CC[C@@H](Cc3cn(-c4ccc(F)cc4C(=O)N4CCC5CC54)c4cncc(C)c34)C2)CC1 (single isomer, unassigned) [Compound 311a]
43 | 10.59 | COCCN(C)CCCC(C(C)C)N1CC[C@@H](Cc2cn(-c3ccc(F)cc3C(=O)N(C)C(C)C)c3cncc(Cl)c23)C1 (some centres unmarked) [Compound 3]
44 | 10.80 | COCCN(C)CCCC(C(C)C)N1CC[C@H](Cc2cn(-c3ccc(F)cc3C(=O)N(C)C(C)C)c3cncc(Cl)c23)C1 (some centres unmarked) [Compound 4]
